# Results as given in ChEMBL document CHEMBL3751767, “Synthesis, in vitro and in vivo anticancer activities of novel 4-substituted 1,2-bis(4-chlorophenyl)-pyrazolidine-3,5-dione derivatives” (Medchemcomm, 2015).
# Active and inactive are the calls of the source. The rule behind the calls is not given here.
# Experiments:
# [1] = Cytotoxicity against human MGC803 cells assessed as reduction in cell viability after 72 hrs by MTT assay; assay type: functional, cell-based; conditions: MGC-803, 72 h
# [2] = Cytotoxicity against human EC109 cells assessed as reduction in cell viability after 72 hrs by MTT assay; assay type: functional, cell-based; conditions: ECa-109, 72 h
# MCF7 = assay: Cytotoxicity against human MCF7 cells assessed as reduction in cell viability after 72 hrs by MTT assay; assay type: functional, cell-based; conditions: MCF7, 72 h
# [3] = Cytotoxicity against human SMMC7721 cells assessed as reduction in cell viability after 72 hrs by MTT assay; assay type: functional, cell-based; conditions: SMMC-7721, 72 h
# [4] = Cytotoxicity against human GES-1 cells assessed as cell viability at 20 uM after 72 hrs by MTT assay relative to control; assay type: cell-based, GES1; conditions: read-out: Activity
# MGC-803 [5] = assay: Induction of apoptosis in human MGC803 cells assessed as morphological changes at 4 to 12 uM after 12 hrs by inverted microscopy; assay type: functional, cell-based
# MGC-803 [6] = assay: Induction of apoptosis in human MGC803 cells assessed as nuclear morphological changes at 4 to 12 uM after 12 hrs by Hoechst 33258 staining based fluorescence assay; assay type: functional, cell-based
# MGC-803 [7] = assay: Induction of apoptosis in human MGC803 cells assessed as early apoptotic cells at 4 uM after 12 hrs by Annexin V-FITC/propidium iodide staining based flow cytometry (reference value: 6.3%); assay type: functional
# MGC-803 [8] = assay: Induction of apoptosis in human MGC803 cells assessed as late apoptotic cells at 4 uM after 12 hrs by Annexin V-FITC/propidium iodide staining based flow cytometry (reference value: 1.2%); assay type: functional
# MGC-803 [9] = assay: Induction of apoptosis in human MGC803 cells assessed as necrotic cells at 4 uM after 12 hrs by Annexin V-FITC/propidium iodide staining based flow cytometry (reference value: 9.2%); assay type: functional
# MGC-803 [10] = assay: Induction of apoptosis in human MGC803 cells assessed as viable cells at 4 uM after 12 hrs by Annexin V-FITC/propidium iodide staining based flow cytometry (reference value: 83.4%); assay type: functional; conditions: MGC-803, 12 h, read-out: Activity
# MGC-803 [11] = assay: Induction of apoptosis in human MGC803 cells assessed as early apoptotic cells at 8 uM after 12 hrs by Annexin V-FITC/propidium iodide staining based flow cytometry (reference value: 6.3%); assay type: functional
# MGC-803 [12] = assay: Induction of apoptosis in human MGC803 cells assessed as late apoptotic cells at 8 uM after 12 hrs by Annexin V-FITC/propidium iodide staining based flow cytometry (reference value: 1.2%); assay type: functional
# MGC-803 [13] = assay: Induction of apoptosis in human MGC803 cells assessed as necrotic cells at 8 uM after 12 hrs by Annexin V-FITC/propidium iodide staining based flow cytometry (reference value: 9.2%); assay type: functional
# MGC-803 [14] = assay: Induction of apoptosis in human MGC803 cells assessed as viable cells at 8 uM after 12 hrs by Annexin V-FITC/propidium iodide staining based flow cytometry (reference value: 83.4%); assay type: functional; conditions: MGC-803, 12 h, read-out: Activity
# MGC-803 [15] = assay: Induction of apoptosis in human MGC803 cells assessed as early apoptotic cells at 12 uM after 12 hrs by Annexin V-FITC/propidium iodide staining based flow cytometry (reference value: 6.3%); assay type: functional
# MGC-803 [16] = assay: Induction of apoptosis in human MGC803 cells assessed as late apoptotic cells at 12 uM after 12 hrs by Annexin V-FITC/propidium iodide staining based flow cytometry (reference value: 1.2%); assay type: functional
# MGC-803 [17] = assay: Induction of apoptosis in human MGC803 cells assessed as necrotic cells at 12 uM after 12 hrs by Annexin V-FITC/propidium iodide staining based flow cytometry (reference value: 9.2%); assay type: functional
# MGC-803 [18] = assay: Induction of apoptosis in human MGC803 cells assessed as viable cells at 12 uM after 12 hrs by Annexin V-FITC/propidium iodide staining based flow cytometry (reference value: 83.4%); assay type: functional; conditions: MGC-803, 12 h, read-out: Activity
# MGC-803 [19] = assay: Induction of apoptosis in human MGC803 cells assessed as early apoptotic cells at 4 uM after 24 hrs by Annexin V-FITC/propidium iodide staining based flow cytometry (reference value: 6%); assay type: functional
# MGC-803 [20] = assay: Induction of apoptosis in human MGC803 cells assessed as late apoptotic cells at 4 uM after 24 hrs by Annexin V-FITC/propidium iodide staining based flow cytometry (reference value: 1.2%); assay type: functional
# MGC-803 [21] = assay: Induction of apoptosis in human MGC803 cells assessed as necrotic cells at 4 uM after 24 hrs by Annexin V-FITC/propidium iodide staining based flow cytometry (reference value: 6.1%); assay type: functional
# MGC-803 [22] = assay: Induction of apoptosis in human MGC803 cells assessed as viable cells at 4 uM after 24 hrs by Annexin V-FITC/propidium iodide staining based flow cytometry (reference value: 86.6%); assay type: functional; conditions: MGC-803, 24 h, read-out: Activity
# MGC-803 [23] = assay: Induction of apoptosis in human MGC803 cells assessed as early apoptotic cells at 8 uM after 24 hrs by Annexin V-FITC/propidium iodide staining based flow cytometry (reference value: 6%); assay type: functional
# MGC-803 [24] = assay: Induction of apoptosis in human MGC803 cells assessed as late apoptotic cells at 8 uM after 24 hrs by Annexin V-FITC/propidium iodide staining based flow cytometry (reference value: 1.2%); assay type: functional
# MGC-803 [25] = assay: Induction of apoptosis in human MGC803 cells assessed as necrotic cells at 8 uM after 24 hrs by Annexin V-FITC/propidium iodide staining based flow cytometry (reference value: 6.1%); assay type: functional
# MGC-803 [26] = assay: Induction of apoptosis in human MGC803 cells assessed as viable cells at 8 uM after 24 hrs by Annexin V-FITC/propidium iodide staining based flow cytometry (reference value: 86.6%); assay type: functional; conditions: MGC-803, 24 h, read-out: Activity
# MGC-803 [27] = assay: Induction of apoptosis in human MGC803 cells assessed as early apoptotic cells at 12 uM after 24 hrs by Annexin V-FITC/propidium iodide staining based flow cytometry (reference value: 6%); assay type: functional
# MGC-803 [28] = assay: Induction of apoptosis in human MGC803 cells assessed as late apoptotic cells at 12 uM after 24 hrs by Annexin V-FITC/propidium iodide staining based flow cytometry (reference value: 1.2%); assay type: functional
# MGC-803 [29] = assay: Induction of apoptosis in human MGC803 cells assessed as necrotic cells at 12 uM after 24 hrs by Annexin V-FITC/propidium iodide staining based flow cytometry (reference value: 6.1%); assay type: functional
# MGC-803 [30] = assay: Induction of apoptosis in human MGC803 cells assessed as viable cells at 12 uM after 24 hrs by Annexin V-FITC/propidium iodide staining based flow cytometry (reference value: 86.6%); assay type: functional; conditions: MGC-803, 24 h, read-out: Activity
# MGC-803 [31] = assay: Induction of apoptosis in human MGC803 cells assessed as increase in expression of cleaved caspase-9 at 4 to 12 uM after 24 hrs by Western blot analysis; assay type: functional, cell-based
# MGC-803 [32] = assay: Induction of apoptosis in human MGC803 cells assessed as increase in expression of cleaved caspase-3 at 4 to 12 uM after 24 hrs by Western blot analysis; assay type: functional, cell-based
# MGC-803 [33] = assay: Induction of apoptosis in human MGC803 cells assessed as decrease in expression of procaspase-9 at 4 to 12 uM after 24 hrs by Western blot analysis; assay type: functional, cell-based
# MGC-803 [34] = assay: Induction of apoptosis in human MGC803 cells assessed as decrease in expression of procaspase-3 at 4 to 12 uM after 24 hrs by Western blot analysis; assay type: functional, cell-based
# MGC-803 [35] = assay: Induction of apoptosis in human MGC803 cells assessed as increase in Bax protein expression after 24 hrs by Western blot analysis; assay type: functional, cell-based
# MGC-803 [36] = assay: Induction of apoptosis in human MGC803 cells assessed as reduction in Bcl-2 protein expression after 24 hrs by Western blot analysis; assay type: functional, cell-based
# MGC-803 [37] = assay: Induction of apoptosis in human MGC803 cells assessed as increase in expression of cleaved caspase-9 at 4 to 12 uM by Western blot analysis; assay type: functional, cell-based; conditions: TDE = time-dependent effect
# MGC-803 [38] = assay: Induction of apoptosis in human MGC803 cells assessed as increase in expression of cleaved caspase-3 at 4 to 12 uM by Western blot analysis; assay type: functional, cell-based; conditions: TDE = time-dependent effect
# MGC-803 [39] = assay: Induction of apoptosis in human MGC803 cells assessed as increase in expression of cleaved caspase-9 after 24 hrs by Western blot analysis; assay type: functional, cell-based
# MGC-803 [40] = assay: Induction of apoptosis in human MGC803 cells assessed as increase in expression of cleaved caspase-3 after 24 hrs by Western blot analysis; assay type: functional, cell-based
# Mus musculus = assay: Toxicity in nude mouse xenografted with human MGC803 cells assessed as body weight loss at 7.5 to 30 mg/kg, po qd for 28 days; assay type: organism-based, MGC-803; conditions: in vivo, 672 h
# [41] = Antitumor activity against human MGC803 cells xenografted in nude mouse assessed as reduction in tumor weight 7.5 to 30 mg/kg, po qd for 28 days relative to control; assay type: functional, MGC-803; set-up: scale not given: the % may be the effect or the level left
# MGC-803 [42] = assay: Induction of apoptosis in human MGC803 cells by Annexin V-FITC/propidium iodide staining based flow cytometry; assay type: functional, cell-based
structure (smiles),measurement,setting,value
O=C1C(=C/C=C/c2ccccc2)C(=O)N(c2ccc(Cl)cc2)N1c1ccc(Cl)cc1,IC50,[1],5.1 µM
same,IC50,[2],9.9 µM
same,IC50,MCF7,9.4 µM
same,IC50,[3],10.1 µM
same,"viability at 72 h, 20 µM",[4],75%
same,Activity,MGC-803 [5],Active
same,Activity,MGC-803 [6],Active
same,Activity,MGC-803 [7],12.8%
same,Activity,MGC-803 [8],1.8%
same,Activity,MGC-803 [9],7.8%
same,viability at 4 µM,MGC-803 [10],77.7%
same,Activity,MGC-803 [11],21.5%
same,Activity,MGC-803 [12],1.7%
same,Activity,MGC-803 [13],5.7%
same,viability at 8 µM,MGC-803 [14],71.1%
same,Activity,MGC-803 [15],30.1%
same,Activity,MGC-803 [16],1.9%
same,Activity,MGC-803 [17],3.9%
same,viability at 12 µM,MGC-803 [18],64.1%
same,Activity,MGC-803 [19],20.4%
same,Activity,MGC-803 [20],1.8%
same,Activity,MGC-803 [21],5.8%
same,viability at 4 µM,MGC-803 [22],72.1%
same,Activity,MGC-803 [23],28.8%
same,Activity,MGC-803 [24],2%
same,Activity,MGC-803 [25],4.2%
same,viability at 8 µM,MGC-803 [26],65%
same,Activity,MGC-803 [27],52.7%
same,Activity,MGC-803 [28],3.7%
same,Activity,MGC-803 [29],4.4%
same,viability at 12 µM,MGC-803 [30],39.2%
same,Activity,MGC-803 [31],Active
same,Activity,MGC-803 [32],Active
same,Activity,MGC-803 [33],Active
same,Activity,MGC-803 [34],Active
same,Activity,MGC-803 [35],Dose-dependent effect
same,Activity,MGC-803 [36],Dose-dependent effect
same,Activity,MGC-803 [37],tde
same,Activity,MGC-803 [38],tde
same,Activity,MGC-803 [39],Dose-dependent effect
same,Activity,MGC-803 [40],Dose-dependent effect
same,Activity,Mus musculus,Non-toxic
same,Activity,[41],60.4%
same,Activity,MGC-803 [42],Dose-dependent effect
